# Results taken from article PMC12030497, “Plasma Protein Binding, Biostability, Metabolite Profiling, and CYP450 Phenotype of TPB15 Across Different Species: A Novel Smoothened Inhibitor for TNBC Therapy” (Pharmaceutics, 2025).
# Legend:
# [1] = Plasma protein binding by ultrafiltration, mouse plasma; format: in vitro ADME, KM mice; conditions: KM; mouse plasma, 4 to 16 μg/mL; read-out: average plasma protein binding rates, range over concentrations
# Protocol: (§1) To prepare plasma samples of TPB15 at final concentrations of 4, 8, and 16 μg/mL, 1 μL of TPB15 dissolved in dimethyl sulfoxide (DMSO) at low (400 μg/mL), medium (800 μg/mL), and high (1600 μg/mL) concentrations was added to 99 μL of blank plasma obtained from humans, rats, mice, monkeys, and dogs. Each concentration was prepared in six replicates. The samples were then divided into two groups: one for determining the pre-ultrafiltration concentration (Cpre) and the other for measuring the post-ultrafiltration concentration (Ct), following the evaluation of the non-specific binding coefficient (NSB) of TPB15 to the ultrafiltration tubes. For Cpre determination, 10 μL of the sample was mixed with 990 μL of plasma, vortexed thoroughly, and analyzed for drug concentration using the previously reported liquid chromatography–tandem mass spectrometry (LC-MS/MS) method. For Ct determination, the samples were first incubated in a water bath at 37 °C for 3 h. After incubation, they were transferred to ultrafiltration tubes and centrifuged at 14,000 rpm for 20 min at 4 °C using a centrifuge (Sigma 3K-15) from Sigma Laborzentrifugen GmbH (Osterode am Harz, Germany). After centrifugation, 10 μL of the ultrafiltrate was mixed with 990 μL of plasma, vortexed, and analyzed for concentration using the same LC-MS/MS method. The formula for calculating the plasma protein binding rate (PPB) is as follows: PPB (%) = [1 − Ct/(1 − NSB)/Cpre] × 100%. (NSB: non-specific binding coefficient. Cpre: post-ultrafiltration concentration. Ct: pre-ultrafiltration concentration).
# mouse plasma protein = assay: as above; format: in vitro ADME, KM mice; conditions: 37 °C 3 h
# Protocol: as §1
# MDA-MB-231 = system: MDA-MB-231; set-up: method as in PMID 32690258; conditions: MDA-MB-231, in vitro; cited from earlier work
# [2] = Plasma protein binding by ultrafiltration, dog plasma; format: in vitro ADME; conditions: beagle
# Protocol: as §1
# Stability in rat plasma = format: in vitro ADME, SD rat; conditions: 37 °C, 453 μg/L
# Protocol: (§2) A total of 696.5 μL of plasma from each species (healthy mice, rat, dog, monkey, and human) were spiked with 3.5 μL of TPB15 stock solution ([…] in DMSO), resulting in a final TPB15 concentration of 453 μg/L in plasma. The mixture was then aliquoted into three tubes, each with a volume of 200 μL, maintaining a final DMSO concentration of 0.5%. After incubation in a water bath at 37 °C for 0, 30, 60, 90, and 120 min, 100 µL samples were transferred into EP tubes. Subsequently, 10 µL of internal standard working solution were added, followed by vortex mixing. Then, 500 µL of ethyl acetate were added, and the mixture was vortexed again before being centrifuged at 14,800 rpm at 4 °C for 10 min. A total of 400 µL of the supernatant were transferred into a new EP tube and placed in a vacuum concentrator (Bionoon-VAC2) (Bionoon Biotech, Shanghai, China) to dry for 1 h. The dried residue was reconstituted with 100 µL of mobile phase, vortex mixed thoroughly, and centrifuged again at 14,800 rpm at 4 °C for 10 min. A volume of 5 µL of the supernatant was then taken for LC-MS/MS analysis to determine the drug concentration. Additionally, a blank control group was established, in which PBS buffer was used in place of blank plasma in the incubation system.
# mice = system: mice; set-up: method as in PMID 32690258; conditions: acute toxicity; cited from earlier work
# [3] = system: normal mammary epithelial cells (MCF10A); set-up: method as in PMID 32690258; conditions: read-out: half-maximal inhibitory concentration (IC50) on normal mammary epithelial cells (MCF10A); cited from earlier work
# Smo = system: Smo; set-up: method as in PMID 32690258; conditions: preliminary studies; cited from earlier work
# [4] = Plasma protein binding, overall across the five species; format: in vitro ADME, mice, rats, dogs, monkeys, humans; conditions: monkey, human, all species tested, low, medium and high concentrations (4 to 16 μg/mL), read-out: plasma protein binding rate, overall
# Protocol: as §1, with “The formula for calculating the plasma protein binding rate (PPB) is as follows: PPB (%) = [1 − Ct/(1 − NSB)/Cpre] × 100%. (NSB: non-specific binding coefficient. Cpre: post-ultrafiltration concentration. Ct: pre-ultrafiltration concentration).” left out
# [5] = Stability in monkey plasma; format: in vitro ADME, cynomolgus monkey; conditions: 37 °C, 453 μg/L
# Protocol: as §2
# [6] = Metabolic stability in mouse liver microsomes (MouLM); format: in vitro ADME, KM mice
# Protocol: A total of 450 μL liver microsomes from mice, rat, dog, monkey, and human were spiked with 0.5 μL of TPB15 solution and pre-incubated in a water bath at 37 °C for 10 min. Following this, 50 μL of NADPH were added to initiate the reaction. The concentrations of each substance in the incubation system are detailed in Table 1. After initiating the metabolic reaction, 50 μL aliquots were removed at incubation times of 0, 5, 15, 30, 45, 60, and 90 min and transferred to 150 μL of icy methanol solution containing the internal standard to terminate the reaction. The mixtures were swirled for 2 min and then centrifuged at 14,800 rpm at 4 °C for 10 min. […] Three samples were prepared in parallel at each time point. Additionally, both a positive control group and a blank control group were established. In the positive control group, substrate testosterone was incubated with liver microsomes from mice, rat, dog, monkey, and human. The concentrations of substrate testosterone were measured at 0 and 90 min, and the changes in concentration before and after incubation were compared to confirm the activity of the liver microsomes. The blank control group included one drug-containing inactivated liver microsome sample for each species. The metabolic stability parameters, including in vitro elimination half-life (T1/2) and in vitro intrinsic clearance rate (CLint), were calculated based on this graph using the following formulas: in vitro elimination half-life (T1/2) = −0.693/k and in vitro intrinsic clearance rate (CLint) = (0.693 × incubation medium (mL))/(liver microsomes (mg) × T1/2).
compound,measurement,setting,value
O=C(Nc1ccc(Cl)c(-c2nnc3c(Cl)cccn23)c1)c1ccc(Cl)nc1Cl [TPB15],fraction unbound at 3 h,[1],0.176 to 0.188
same,Plasma Protein Binding (%) KM Mice,"mouse plasma protein; 4 μg/mL TPB15, ultrafiltration",81.80 ± 0.10%
same,Plasma Protein Binding (%) KM Mice,"mouse plasma protein; 8 μg/mL TPB15, ultrafiltration",81.21 ± 0.34%
same,Plasma Protein Binding (%) KM Mice,"mouse plasma protein; 16 μg/mL TPB15, ultrafiltration",82.40 ± 0.42%
same,inhibition of proliferation of TNBC cell line,MDA-MB-231,significantly inhibits the proliferation
same,"fraction unbound at 3 h, 4 μg/mL","[2]; dog, plasma, 4 μg/mL TPB15, ultrafiltration, 37 °C 3 h",0.185
same,"fraction unbound at 3 h, 8 μg/mL","[2]; dog, plasma, 8 μg/mL TPB15, ultrafiltration, 37 °C 3 h",0.19
same,"fraction unbound at 3 h, 16 μg/mL","[2]; dog, plasma, 16 μg/mL TPB15, ultrafiltration, 37 °C 3 h",0.177
same,fraction unbound at 3 h,"[2]; dog plasma, 4 to 16 μg/mL, read-out: average plasma protein binding rates, range over concentrations",0.177 to 0.19
same,Remaining proportion of substrate TPB15 (%) SD rat,Stability in rat plasma; incubation 0 min,100.0 ± 0.6%
same,Remaining proportion of substrate TPB15 (%) SD rat,Stability in rat plasma; incubation 30 min,99.7 ± 1.5%
same,Remaining proportion of substrate TPB15 (%) SD rat,Stability in rat plasma; incubation 60 min,97.6 ± 0.6%
same,Remaining proportion of substrate TPB15 (%) SD rat,Stability in rat plasma; incubation 90 min,99.1 ± 0.3%
same,Remaining proportion of substrate TPB15 (%) SD rat,Stability in rat plasma; incubation 120 min,98.0 ± 0.6%
same,lethal dose for 50% of the population (LD50),mice,3875.35 mg/kg
same,IC50,[3],169 µM
same,binding to the Smo target,Smo,effectively binds to the Smo target
same,fraction unbound at 3 h,"[4]; SD (rat), KM (mouse), beagle (dog)",0.176 to 0.191
same,fraction unbound at 3 h,"[4]; mouse, rat, dog",0.176 to 0.185
same,Remaining proportion of substrate TPB15 (%) Cynomolgus monkey,[5]; incubation 0 min,100.0 ± 1.7%
same,Remaining proportion of substrate TPB15 (%) Cynomolgus monkey,[5]; incubation 30 min,98.2 ± 0.6%
same,Remaining proportion of substrate TPB15 (%) Cynomolgus monkey,[5]; incubation 60 min,96.3 ± 1.2%
same,Remaining proportion of substrate TPB15 (%) Cynomolgus monkey,[5]; incubation 90 min,99.3 ± 0.9%
same,Remaining proportion of substrate TPB15 (%) Cynomolgus monkey,[5]; incubation 120 min,98.3 ± 1.5%
same,remaining proportion of TPB15 in liver microsomes,"[6]; KM mice microsomes, 90 min, 5 μM TPB15, 0.5 mg/mL, NADPH 1 mM",80.0 ± 5.93%
same,microsomal CLint at 5 μM,"[6]; KM, mouse, liver microsomes, MouLM, 5 μM TPB15, 0.5 mg/mL microsomes, read-out: CLint (mL/min/mg), in vitro intrinsic clearance rate",0.0273 mL/min/mg
